Measurements from publication PMC9698702, “Efficient Preparation of High-Purity Fucoxanthinol by SpyTag-Tailored Active Cholesterol Esterase Aggregates” (Marine Drugs, 2022).

Tested on: T1, free cholesterol esterase
T1 construct: commercial Pseudomonas cholesterol esterase (Sigma-Aldrich), free
Assay: coupled cholesterol oxidase/peroxidase assay at […] nm, Lineweaver-Burk
Assay type: biochemical
Details: free enzyme; taurocholate, pH 7.0, 37 °C; substrate of the kinetic run not named, taken from the activity assay

Km: 48.8 µM
SMILES: CCCCCCCC/C=C\CCCCCCCC(=O)O[C@H]1CC[C@@]2(C)C(=CC[C@H]3[C@@H]4CC[C@H]([C@H](C)CCCC(C)C)[C@@]4(C)CC[C@@H]32)C1 [cholesteryl oleate]
